The record followed here is ChEMBL document CHEMBL1141916, “Synthesis and anticonvulsant activity of new 2-substituted-5-(2-benzyloxyphenyl)-1,3,4-oxadiazoles” (Bioorg Med Chem Lett, 2005).

The species named for data set [1] is Mus musculus. The experiment in a line: Effective dose against maximal electroshock (MES) induced convulsants in mice. The class given is functional.
Data set [2] is described as follows: Lethal dose tested against mice. It is filed as toxicity. The settings on record: mouse, in vivo.
The species named for data set [3] is Mus musculus. The experiment in a line: Effective dose against pentylenetetrazole (PTZ) induced anticonvulsant activity in mice. It is filed as functional.
Data set [4] deals with Mus musculus. The experiment in a line: Effective dose against pentylenetetrazole (PTZ) induced anticonvulsant activity in presence of flumazenil at 10 mg/kg in mice; range: 1.5-4.1. It is filed as functional.
The species entered for data set [5] is Mus musculus. The experiment in a line: animal or person.
Description: Effective dose against pentylenetetrazole (PTZ) induced anticonvulsant activity in presence of flumazenil at 10 mg/kg in mice; Range: 1.1-2
The species entered for data set [6] is Mus musculus. The experiment in a line: animal or person. This is another data set of the same source.

Usually ED50 stands for the dose at which the effect has come halfway, by size or by number of responders. One may read the LD50 as the dose expected to kill half of the subjects tested. Read a low LD50 as a more toxic substance. With `CSc1nnc(-c2ccccc2OCc2ccccc2)o1`, the 50% effective dose (ED50) in data set [1] was greater than 100 mg/kg; in data set [3], 91.2 mg/kg. In data set [2], the LD50 is greater than 300 mg/kg.
The corresponding values for `Sc1nnc(-c2ccccc2OCc2ccccc2)o1` are no less than 100 mg/kg, greater than 100 mg/kg and greater than 300 mg/kg.
The corresponding values for `c1ccc(COc2ccccc2-c2nnc(SCc3ccccc3)o2)cc1` are greater than 100 mg/kg, greater than 100 mg/kg and greater than 300 mg/kg.
Regarding `Nc1nnc(-c2ccccc2OCc2ccccc2)o1`, the ED50 came out at 63.2 mg/kg in data set [1] and 85.2 mg/kg in data set [3]. Moreover, the LD50 in data set [2] was greater than 300 mg/kg.
As to `Nc1nnc(-c2ccccc2OCc2ccc(F)cc2)o1`, the 50% effective dose (ED50) in data set [1] is 3.3 mg/kg; in data set [4], 2.5 mg/kg; in data set [3], 2.5 mg/kg. For the same compound, in data set [2], the LD50 is greater than 300 mg/kg.
Take `Nc1nnc(-c2ccccc2OCc2ccc(Cl)cc2)o1`: the ED50 in data set [1] and in data set [3] was greater than 100 mg/kg in each case. Also, in data set [2], the 50% lethal dose (LD50) was greater than 300 mg/kg.
Regarding `CCSc1nnc(-c2ccccc2OCc2ccccc2)o1`, the ED50 in data set [1] and in data set [3] was greater than 100 mg/kg in each case. This compound also yielded an LD50 in data set [2] greater than 300 mg/kg.
In the case of `CN1C(=O)CN=C(c2ccccc2)c2cc(Cl)ccc21` [DIAZEPAM], the 50% effective dose (ED50) was found to be 2 mg/kg in data set [5], 1.8 mg/kg in data set [1], 2.6 mg/kg in data set [6] and 1.4 mg/kg in data set [3].
